Where “and” joins values, the source holds several entries; their conditions need not be identical. Equal values may be shown once.

The test system of one assay is STAM mice (NASH). Description: STAM model of NASH (Example 2): NAFLD activity score, Sirius red, α-SMA staining. Also noted: key to NAFLD Activity: Ballooning Score, mean / NAFLD Activity: Steatosis Score, mean / NAFLD Activity: Inflammation Score, mean / NAFLD Activity Score: raw data / NAFLD Activity: Steatosis Score: raw data / NAFLD Activity: Ballooning Score: raw data: NAS = steatosis (0-3) + inflammation (0-2) + ballooning (0-2). It is filed as in vivo, mouse. On the procedure: Amino Acid Composition A-1 and Obeticholic acid (6α-ethyl-chenodeoxycholic acid; “OCA”) were tested for their ability to treat NASH in the STAM™ model (Stelic Institute & Co., Tokyo, Japan; Saito K. et al., 2015 Sci Rep 5: 12466). Two additional groups of normal C57BL/6 mice fed standard chow and vehicle treated STAM™ mice were included as controls. All animals receiving treatment or vehicle were treated starting at 6 weeks until 9 weeks of age. Compounds were administered via oral gavage, with a dose volume of 10 ml/kg. Amino Acid Composition A-1 was administered twice daily at a dose of 1500 mg/kg, and OCA was administered once daily at a dose of 30 mg/kg.
STAM™ is a model for non-alcoholic steatohepatitis (NASH) and hepatocellular carcinoma (HCC), developed by SMC Laboratories, Inc. and created by the combination of chemical and dietary interventions using C57BL/6 mice (Saito K. et al., 2015 Sci Rep 5: 12466). Mice are treated with a low dose of streptozotocin at birth and fed a high fat diet starting at 4 weeks. Evidence of fatty liver is present by 5 weeks, followed by NASH by 7 weeks and fibrosis by 9 weeks.
NASH was induced in 53 male mice by a single subcutaneous injection of 200 μg streptozotocin (STZ, Sigma-Aldrich, USA) solution 2 days after birth and feeding with high fat diet (HFD, 57 kcal % fat, Cat #HFD32, CLEA Japan, Japan) after 4 weeks of age.
Amino Acid Composition A-1, OCA and Vehicle (described below) were administered by oral route in a volume of 10 mL/kg. Amino Acid Composition A-1 was solubilized in deionized water to 150 mg/ml (10×). OCA (Advanced ChemBlocks Inc.) was resuspended in 0.5% methylcellulose in water to 3 mg/ml (10×). Amino Acid Composition A-1 was administered at a dose of 1500 mg/kg twice daily (9 am and 7 pm). OCA was administered at a dose of 30 mg/kg once daily (9 am).
Liver samples from mice in Group 2 (Vehicle), 3 (Amino Acid Composition A-1) and 4 (OCA) were used for the following assays. For HE staining, sections were cut from paraffin blocks of liver tissue prefixed in Bouin's solution and stained with Lillie-Mayer's Hematoxylin (Muto Pure Chemicals Co., Ltd., Japan) and eosin solution (Wako Pure Chemical Industries). NAFLD Activity score (NAS) was calculated according to the criteria of Kleiner (Kleiner D. E. et al., Hepatology, 2005; 41:1313).
Group 3: Amino Acid Composition A-1: Ten NASH mice were orally administered water for irrigation supplemented with Amino Acid Composition A-1 at a dose of 1500 mg/kg twice daily (9 am and 7 pm) from 6 to 9 weeks of age.
Group 4: OCA: Ten NASH mice were orally administered 0.5% methylcellulose supplemented with OCA at a dose of 30 mg/kg once daily (9 am) from 6 to 9 weeks of age.
The non-alcoholic fatty liver disease (NAFLD) activity score was assessed via histological analysis and grading of H&E stained liver sections from each animal. This score is the sum of three individual scores that grade the degree of steatosis (0-3), inflammation (0-2), and hepatocyte ballooning (0-2). All tissues were graded using the scoring criteria of Kleiner et al. (Kleiner et al. Hepatology. 2005; 41(6): 1313-21). Data are mean±standard deviation (stdev). […] Both Amino Acid Composition A-1 and OCA were statistically different from vehicle for NAFLD Activity Score when compared using Dunnett's multiple comparisons test (Amino Acid Composition A-1 p=0.0001, OCA p=0.0001).
Fibrosis was assessed by analysis of Sirius red positively stained cell area from stained liver sections from each animal. Images were quantified using the percent of positively stained area was used as a measure of fibrosis. Data are mean±standard deviation (stdev). […] Amino Acid Composition A-1 and OCA were statistically different from vehicle when compared using Dunnett's multiple comparisons test (Amino Acid Composition A-1 p=0.00494, OCA p<0.016).
Liver sections of all mice were stained for the marker α-smooth muscle actin (aSMA) to identify activated hepatic stellate cells. […]

Assay [1] concerns LX-2 hepatic stellate cells. Description: TGFβ1-induced fibrogenic gene expression (Col1a1, Acta2, Timp2) in LX-2 hepatic stellate cells, qPCR. In kind it is cell-based, human. The note with it: LX-2 cells with TGFβ1. The source says:
Hepatic stellate cells in a healthy liver are in the space of Disse, between the hepatocytes and liver sinusoidal endothelial cells. In response to liver injury hepatic stellate cells become activated, proliferative and contractile, increase production of aSMA, secretion of type I and III collagens and specific MMP and TIMP proteins. LX-2 cells were selected as a model of activated hepatic stellate cells and used to test whether specific amino acid compositions would reduce fibrogenic gene expression induced with TGFβ1.
LX-2 hepatic stellate cells (Millipore) were seeded on day 0 at 1.67E4 cells per well in collagen I coated 96-well microplates (ThermoFisher) in Dulbecco's Modified Eagle Medium (DMEM, Corning) supplemented with 2% heat inactivated fetal bovine serum (HI-FBS, HyClone) and 0.2% Primocin (InVivoGen) and incubated overnight at 37° C., 5% CO2. […] Combinations containing N-acetylcysteine were dosed with 10 mM. Cells were pretreated for 6 hours at 37° C., 5% CO2. After pretreatment, TGFβ1 (R&D Systems) or vehicle was spiked into each well for a final concentration of 5 ng/mL and cells were incubated under this stimulus for a further 12 hours at 37° C., 5% CO2.
After 12 hour incubation, RNA extraction and quantitative PCR was conducted on lysates to determine collagen-1a1 expression normalized to β-actin housekeeping expression using the ΔΔCt method using TaqMan primer probes (Integrated DNA Technologies: Col1A1, Hs.PT.58.15517795; Actb, Hs.PT.39a.22214847; Acta2, Hs.PT.56a.24853961; Timp2, Hs.PT.58.14780594).

Setting [2] is: STAM mice liver sections, A-1 1500 mg/kg twice daily, OCA 30 mg/kg once daily.
Setting [3] is: STAM mice treated 6 to 9 weeks of age, A-1 1500 mg/kg twice daily, OCA 30 mg/kg once daily.
Setting [4] is: individual amino acid at 1X HMDB derived concentration.
The mark [5] stands for this setting: individual amino acid at 50X HMDB derived concentration.

For the compound `CC[C@H]1[C@@H](O)[C@@H]2[C@H](CC[C@]3(C)[C@@H]([C@H](C)CCC(=O)O)CC[C@@H]23)[C@@]2(C)CC[C@@H](O)C[C@@H]12` [OCA, 6α-ethyl-chenodeoxycholic acid], in the assay with STAM mice (NASH) (setting [2]), the “Activated hepatic stellate cells (mean positively stained area, α-smooth muscle actin)” value is 1.562+/−0.31% and 1.562%; the “Fibrosis (mean positively stained area, Sirius red)” value was 0.776+/−0.25% and 0.776%. Besides, in the assay on STAM mice (NASH) (setting [3]), the “NAFLD Activity: Ballooning Score, mean” value is 0.3+/−0.48 and 0.3; the “NAFLD Activity: Inflammation Score, mean” value is 1.8; the “NAFLD Activity: Steatosis Score, mean” value is given as 0.8. In addition, the “NAFLD Activity Score (NAS), mean” value with STAM mice (NASH) (STAM mice treated 6 to 9 weeks of age, A-1 1500 mg/kg twice daily, OCA 30 mg/kg once daily, oral) is 2.9+/−0.74 and 2.9. For the same compound, in the assay on STAM mice (NASH) (individual STAM mice), the “Activated hepatic stellate cells (positively stained area, α-smooth muscle actin): raw data” value is 1.51% and 1.49% (2×) and 1.17% and 1.5% and 1.13% and 2.03% and 1.87% and 1.97% and 1.46%; the “Fibrosis (positively stained area, Sirius red): raw data” value was 1.1% and 1.19% and 0.89% and 0.91% and 0.66% and 0.72% and 0.68% and 0.69% and 0.36% and 0.56%; the “NAFLD Activity Score: raw data” value is 2 (3×) and 4 (2×) and 3 (5×); the “NAFLD Activity: Ballooning Score: raw data” value was 0 (7×) and 1 (3×). For the same compound, in the assay on STAM mice (NASH) (individual STAM mice), the “NAFLD Activity: Inflammation Score: raw data” value is 1 (4×) and 2 (4×) and 3 (2×); the “NAFLD Activity: Steatosis Score: raw data” value is 1 (8×) and 0 (2×).

`CC[C@H](C)[C@H](N)C(=O)O` [ILE, isoleucine]: the entries for the “Col1a1 gene expression, mean” value in assay [1] (setting [4]) and in assay [1] (setting [5]) were 2.020 and 2.028, respectively.

For the compound `CC(C)[C@H](N)C(=O)O` [VAL, valine], the “Col1a1 gene expression, mean” value in assay [1] (setting [4]) is reported as 2.093; in assay [1] (setting [5]), 2.203.
